Consider one compound from patent US20250057743A1, “Oral Care Compositions Comprising Dicarboxylic Acid” (The Procter & Gamble Company, priority 2020, published 2025).

For data set [1] the following is noted: human, 1 %.
Procedure: The enamel softening method is used to determine the potential of oral care compositions to damage (or not to damage) dental enamel with repeated exposure.
A core of sound human enamel with a diameter of 3-4 mm was extracted from whole human teeth. The cores were mounted in dental acrylic and the surfaces were ground using 600 grit paper. Increasingly fine lapping papers were then used to polish the surface to a 1 um polish. Samples were sonicated in deionized water for 30 min. Enamel specimens were then rinsed with deionized water and wiped to remove any residual polish. Each enamel specimen was inspected and samples with large cracks or uneven calcification were discarded. […]
Also on the day before the experiment, the Vickers hardness of each enamel specimen was measured using a hardness indenter at three separate locations spread across the enamel surface. A 50g load was applied for 10 seconds, and the diagonal lengths of the resulting indents were measured using a 20× magnification objective. […]
On the day following the cycling experiment, the post-cycling hardness was obtained for each specimen using a similar procedure to that described for the pre-cycling hardness measurements. The change in hardness was calculated for each specimen by subtracting the pre-cycling hardness from the post-cycling hardness measurement. […]
The nature of a further data set: Slurry pH of composition. In kind it is physicochemical. Conditions: Table 10, treatments of the enamel softening study (1:3 slurry of toothpaste to water). An excerpt:
The pH of the oral care compositions as described herein can be from about 4 to about 7, from about 4 to about 6, from about 4.5 to about 6.5, or from about 4.5 to about 5.5. The pH of a mouthrinse solution can be determined as the pH of the neat solution. The pH of a dentifrice composition can be determined as a slurry pH, which is the pH of a mixture of the dentifrice composition and water, such as a 1:4, 1:3, or 1:2 mixture of the dentifrice composition and water.

Each structure is given as a SMILES string.

Turning to `O=C(O)CC(O)(CC(=O)O)C(=O)O` [1% Citric Acid, citric acid], the “Δ SMH (change in surface microhardness)” value in data set [1] was 175.68. Moreover, the “Slurry pH” value in the data set “Slurry pH of composition” came to 2.19.
